In ChEMBL document CHEMBL3044788, “α-(Substituted-phenoxyacetoxy)-α-heterocyclylmethylphosphonates: synthesis, herbicidal activity, inhibition on pyruvate dehydrogenase complex (PDHc), and application as postemergent herbicide against broadleaf weeds” (J Agric Food Chem, 2013):

Legend:
Type in all cases: functional
Abutilon theophrasti [1] = test: Herbicidal activity against two to three-leaf stage Abutilon theophrasti (velvetleaf) assessed as inhibition of plant growth at 150 g/ha in greenhouse by post-emergence herbicidal activity assay; conditions: read-out: GI
Amaranthus retroflexus [2] = test: Herbicidal activity against 2 to 3 leaf stage Amaranthus retroflexus assessed as inhibition of plant growth at 150 g/ha in greenhouse by postemergence herbicidal activity assay; conditions: post-emergence, read-out: GI
Amaranthus retroflexus [3] = test: Herbicidal activity against 2 to 3 leaf stage Amaranthus retroflexus assessed as inhibition of plant growth at 450 g/ha in greenhouse by postemergence herbicidal activity assay; conditions: post-emergence, read-out: GI
Eclipta prostrata [4] = test: Herbicidal activity against two to three-leaf stage Eclipta prostrata assessed as inhibition of plant growth at 150 g/ha in greenhouse by post-emergence herbicidal activity assay; conditions: read-out: GI
[5] = test system: Brassica rapa subsp. oleifera; test: Herbicidal activity against two to three-leaf stage Brassica rapa subsp. oleifera assessed as inhibition of plant growth at 150 g/ha in greenhouse by postemergence herbicidal activity assay; conditions: post-emergence, read-out: GI
Abutilon theophrasti [6] = test: Herbicidal activity against two to three-leaf stage Abutilon theophrasti (velvetleaf) assessed as inhibition of plant growth at 450 g/ha in greenhouse by post-emergence herbicidal activity assay; conditions: read-out: GI
[7] = test system: Brassica rapa subsp. oleifera; test: Herbicidal activity against two to three-leaf stage Brassica rapa subsp. oleifera assessed as inhibition of plant growth at 450 g/ha in greenhouse by postemergence herbicidal activity assay; conditions: post-emergence, read-out: GI
Eclipta prostrata [8] = test: Herbicidal activity against two to three-leaf stage Eclipta prostrata assessed as inhibition of plant growth at 450 g/ha in greenhouse by post-emergence herbicidal activity assay; conditions: read-out: GI

Structure (SMILES)	inhibition of growth at 150 g/ha (Abutilon theophrasti [1]) [%]	inhibition of growth at 150 g/ha (Amaranthus retroflexus [2]) [%]	inhibition of growth at 450 g/ha (Amaranthus retroflexus [3]) [%]	inhibition of growth at 150 g/ha (Eclipta prostrata [4]) [%]	inhibition of growth at 150 g/ha [5] [%]	inhibition of growth at 450 g/ha (Abutilon theophrasti [6]) [%]	inhibition of growth at 450 g/ha [7] [%]	inhibition of growth at 450 g/ha (Eclipta prostrata [8]) [%]
COP(=O)(OC)C(OC(=O)COc1ccc(Cl)cc1Cl)c1cccs1 (stereo not drawn)	90	90	100	80	90	100	100	100
COP(=O)(OC)C(OC(=O)COc1cccc(Cl)c1Cl)c1cccs1 (stereo not drawn)	0	40	60	40	0	40	40	85
COP(=O)(OC)C(OC(=O)COc1ccc(Cl)cc1C)c1cccs1 (stereo not drawn)	60	80	100	75	80	90	95	100
COP(=O)(OC)C(OC(=O)COc1ccc(Cl)cc1)c1ccco1 (stereo not drawn)	75	70	–	70	75	–	–	–
COP(=O)(OC)C(OC(=O)COc1cccc(Cl)c1Cl)c1ccco1 (stereo not drawn)	20	25	–	35	30	–	–	–
COP(=O)(OC)C(OC(=O)COc1ccc(Cl)cc1C)c1ccco1 (stereo not drawn)	80	80	–	60	85	–	–	–
COP(=O)(OC)C(OC(=O)COc1ccc(Cl)c(C)c1)c1ccco1 (stereo not drawn)	80	80	–	75	80	–	–	–
COP(=O)(OC)C(OC(=O)COc1ccc(F)cc1F)c1ccco1 (stereo not drawn)	40	50	–	40	60	–	–	–
COP(=O)(OC)C(OC(=O)COc1cc(Cl)c(Cl)cc1Cl)c1ccco1 (stereo not drawn)	75	75	–	80	85	–	–	–
COP(=O)(OC)C(OC(=O)COc1ccc(C#N)cc1)c1cccs1 (stereo not drawn)	30	40	40	0	30	40	40	60
COP(=O)(OC)C(OC(=O)COc1cccc(C(F)(F)F)c1)c1cccs1 (stereo not drawn)	20	20	–	15	30	–	–	–
COP(=O)(OC)C(OC(=O)COc1ccc(C(F)(F)F)cc1)c1cccs1 (stereo not drawn)	15	20	–	30	20	–	–	–
COP(=O)(OC)C(OC(=O)COc1ccccc1F)c1cccs1 (stereo not drawn)	0	15	–	20	0	–	–	–
COP(=O)(OC)C(OC(=O)COc1ccc(F)cc1F)c1cccs1 (stereo not drawn)	60	60	70	60	70	75	80	70
COP(=O)(OC)C(OC(=O)COc1ccc(Cl)cc1F)c1cccs1 (stereo not drawn)	70	70	75	70	70	75	75	90
COP(=O)(OC)C(OC(=O)COc1ccc(F)cc1Cl)c1cccs1 (stereo not drawn)	70	90	100	80	75	90	95	85
COP(=O)(OC)C(OC(=O)COc1cc(Cl)c(Cl)cc1Cl)c1cccs1 (stereo not drawn)	80	80	90	80	80	85	95	50
COP(=O)(OC)C(OC(=O)COc1ccccc1)c1ccco1 (stereo not drawn)	22	6	–	31	28	–	–	–
COP(=O)(OC)C(OC(=O)COc1cccc(C)c1)c1ccco1 (stereo not drawn)	39	36	–	30	37	–	–	–
COP(=O)(OC)C(OC(=O)COc1ccc(C)cc1)c1ccco1 (stereo not drawn)	32	23	–	30	36	–	–	–
COP(=O)(OC)C(OC(=O)COc1cccc(C)c1C)c1ccco1 (stereo not drawn)	50	50	–	30	40	–	–	–
COP(=O)(OC)C(OC(=O)COc1ccc(Br)cc1)c1ccco1 (stereo not drawn)	40	60	–	60	75	–	–	–
COP(=O)(OC)C(OC(=O)COc1ccccc1Cl)c1ccco1 (stereo not drawn)	0	40	–	30	40	–	–	–
COP(=O)(OC)C(OC(=O)COc1ccc(C#N)cc1)c1ccco1 (stereo not drawn)	40	50	–	30	40	–	–	–
COP(=O)(OC)C(OC(=O)COc1cccc(C(F)(F)F)c1)c1ccco1 (stereo not drawn)	0	0	–	0	0	–	–	–
COP(=O)(OC)C(OC(=O)COc1ccc(C(F)(F)F)cc1)c1ccco1 (stereo not drawn)	0	0	–	0	0	–	–	–
COP(=O)(OC)C(OC(=O)COc1ccccc1F)c1ccco1 (stereo not drawn)	40	60	–	60	75	–	–	–
COP(=O)(OC)C(OC(=O)COc1ccc(Cl)cc1F)c1ccco1 (stereo not drawn)	70	60	–	70	75	–	–	–
COP(=O)(OC)C(OC(=O)COc1ccc(F)cc1Cl)c1ccco1 (stereo not drawn)	75	90	–	75	85	–	–	–
